Like-named read-outs stand apart in the source and are kept apart here. Bounds are passed on as bounds.

In assay [1] the target is T1, MALT1 (Homo sapiens, UniProt Q9UDY8).
T1 construct: Avi-tagged FL MALT-1 (Pharmaron, stored at −70° C.); Avi tag
T1 sequence (Q9UDY8 1-824): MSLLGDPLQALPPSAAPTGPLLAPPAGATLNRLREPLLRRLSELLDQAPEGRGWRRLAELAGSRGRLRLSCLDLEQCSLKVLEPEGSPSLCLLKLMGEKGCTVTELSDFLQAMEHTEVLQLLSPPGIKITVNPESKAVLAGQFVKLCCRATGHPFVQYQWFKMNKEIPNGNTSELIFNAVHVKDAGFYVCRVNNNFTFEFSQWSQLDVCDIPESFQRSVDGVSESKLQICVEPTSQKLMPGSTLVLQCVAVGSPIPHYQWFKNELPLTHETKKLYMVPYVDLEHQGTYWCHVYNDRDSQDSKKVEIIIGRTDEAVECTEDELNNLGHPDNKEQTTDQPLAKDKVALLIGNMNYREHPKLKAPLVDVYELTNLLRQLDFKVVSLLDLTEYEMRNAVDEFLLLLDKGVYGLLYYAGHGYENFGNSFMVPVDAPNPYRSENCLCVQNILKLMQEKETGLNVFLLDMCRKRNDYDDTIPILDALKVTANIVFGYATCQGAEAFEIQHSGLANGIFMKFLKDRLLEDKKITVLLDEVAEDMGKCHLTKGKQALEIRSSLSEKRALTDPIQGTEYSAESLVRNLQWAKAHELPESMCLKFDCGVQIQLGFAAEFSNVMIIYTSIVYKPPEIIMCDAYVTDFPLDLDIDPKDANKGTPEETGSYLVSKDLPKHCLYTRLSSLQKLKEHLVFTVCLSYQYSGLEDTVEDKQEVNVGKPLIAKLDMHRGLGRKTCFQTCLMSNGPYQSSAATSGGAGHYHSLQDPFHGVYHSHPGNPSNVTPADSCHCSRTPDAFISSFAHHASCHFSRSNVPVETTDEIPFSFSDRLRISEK
Kind of assay: MALT-1 Fluorogenic Peptide Cleavage Assay (MALT1 inhibition assay). It counts as biochemical. As to conditions: Avi-tagged FL MALT-1, Ac-LRSR-AMC peptide substrate, 30 min pre-incubation, 90 min reaction. Summed up: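 IC50 from sigmoidal fits of % inhibition, with fluorescence (ex 342, em 441 nm) from AMC released from the quenched LRSR peptide after 90 min at room temperature. Full-length Avi-tagged MALT1 saw compound for 30 min first; final DMSO 2%.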

For assay [2], the system named is NF-kB. Kind of assay: NF-kB reporter assay in Jurkat cells stimulated with aCD3/aCD28/PMA. It counts as cell-based. As to conditions: read-out: NF-kB Reporter Assay IC50. The gist of the method: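 Stimulation used final aCD3 5 μg/mL, aCD28 5 μg/mL and PMA 0.03 μg/mL for 4 hr at 37° C, after 1 hr compound pretreatment of 25,000 serum-starved Jurkat cells per well. One-Glo luminescence gave IC50 values.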
In general terms: Reporter assays use an easily measured gene product as a stand-in for the process of interest.

[3] abbreviates: Homo sapiens, Jurkat, Jurkat cells, 1 hr compound incubation, aCD3/aCD28/PMA stimulation 4 hr, One-Glo readout.
[4] abbreviates: Jurkat cells, 1 hr compound incubation, aCD3/aCD28/PMA stimulation 4 hr, One-Glo readout.

Regarding `CCOC(=O)c1cnn(-c2ccc(S(=O)(=O)Nc3cccc4cnn(C)c34)cn2)c1C` [Example I-246, ethyl 5-methyl-1-(5-(N-(1-methyl-1H-indazol-7-yl)sulfamoyl)pyridin-2-yl)-1H-pyrazole-4-carboxylate], the IC50 (usually the midpoint of a concentration-inhibition curve) was over 2500 nM in assay [1] and under 400 nM in assay [2] (setting [3]).

For `Cn1ncc2cccc(NS(=O)(=O)c3ccc(-n4cc5c(n4)CCOC5)nc3)c21` [Example I-247, N-(1-methylindazol-7-yl)-6-{4H,6H,7H-pyrano[4,3-c]pyrazol-2-yl}pyridine-3-sulfonamide], the figures for the IC50 in assay [1] and in assay [2] (setting [3]) were over 2500 nM and under 400 nM, respectively.

In the case of `CN[C@@H]1CCCC[C@H]1N(C)c1ccc(S(=O)(=O)Nc2cccc3cnn(C)c23)cn1` [Example I-248, 6-{methyl[(1R,2R)-2-(methylamino)cyclohexyl]amino}-N-(1-methylindazol-7-yl)pyridine-3-sulfonamide], the IC50 in assay [1] and in assay [2] (setting [3]) was over 2500 nM in each case.

Regarding `COc1ccc2c(F)nn(C)c2c1NS(=O)(=O)c1ccc(-n2cc(C)cn2)nc1` [Example I-249, N-(3-fluoro-6-methoxy-1-methyl-1H-indazol-7-yl)-6-(4-methyl-1H-pyrazol-1-yl)pyridine-3-sulfonamide], the half-inhibitory concentration (IC50) in assay [1] is under 400 nM; in assay [2] (Homo sapiens, Jurkat) it was 400 to 1000 nM.

Consider `Cn1ncc2cccc(NS(=O)(=O)c3ccc(-c4cnc(Cl)s4)nc3)c21` [Example I-250, 6-(2-chlorothiazol-5-yl)-N-(1-methyl-1H-indazol-7-yl)pyridine-3-sulfonamide], for which the IC50 in assay [1] is 1000 to 2500 nM; in assay [2] (Homo sapiens, Jurkat) it was under 400 nM.

`COC1(c2cnn(-c3ccc(S(=O)(=O)Nc4cccc5cnn(C)c45)cn3)c2)CC1` [Example I-251, 6-(4-(1-methoxycyclopropyl)-1H-pyrazol-1-yl)-N-(1-methyl-1H-indazol-7-yl)pyridine-3-sulfonamide]: the IC50 was over 2500 nM in assay [1] and under 400 nM in assay [2] (setting [3]).

In the case of `Cc1c(CO)cnn1-c1ccc(S(=O)(=O)Nc2cccc3cnn(C)c23)cn1` [Example I-252, 6-[4-(hydroxymethyl)-5-methylpyrazol-1-yl]-N-(1-methylindazol-7-yl)pyridine-3-sulfonamide], the IC50 was over 2500 nM in assay [1] and under 400 nM in assay [2] (setting [3]).

`Cn1ncc2cccc(NS(=O)(=O)c3ccc(-c4cnn(C5COC5)c4)nc3)c21` [Example I-253, N-(1-methyl-1H-indazol-7-yl)-6-(1-(oxetan-3-yl)-1H-pyrazol-4-yl)pyridine-3-sulfonamide]: the IC50 in assay [1] was over 2500 nM; in assay [2] (setting [3]), 400 to 1000 nM.

Turning to `Cc1nc(-c2ccc(S(=O)(=O)Nc3cccc4cnn(C)c34)cn2)cn1C(F)(F)F` [Example I-264, 6-(2-methyl-1-(trifluoromethyl)-1H-imidazol-4-yl)-N-(1-methyl-1H-indazol-7-yl)pyridine-3-sulfonamide], the figures for the IC50 in assay [1] and in assay [2] (setting [3]) were over 2500 nM and under 400 nM, respectively.

Turning to `Cn1ncc2cccc(NS(=O)(=O)c3ccc(-c4cnc(C5CC5)s4)nc3)c21` [Example I-265, 6-(2-cyclopropyl-1,3-thiazol-5-yl)-N-(1-methylindazol-7-yl)pyridine-3-sulfonamide], the values for the IC50 in assay [1] and in assay [2] (setting [3]) were over 2500 nM and under 400 nM, respectively.

For the molecule `CC(C)c1ncc(-c2ccc(S(=O)(=O)Nc3cccc4cnn(C)c34)cn2)s1` [Example I-266, 6-(2-isopropyl-1,3-thiazol-5-yl)-N-(1-methylindazol-7-yl)pyridine-3-sulfonamide], the IC50 in assay [1] was over 2500 nM; in assay [2] (Homo sapiens, Jurkat), under 400 nM.

As to `Cn1ncc2cccc(NS(=O)(=O)c3ccc(-c4cnc(C(C)(C)O)s4)nc3)c21` [Example I-267, 6-[2-(2-hydroxypropan-2-yl)-1,3-thiazol-5-yl]-N-(1-methylindazol-7-yl)pyridine-3-sulfonamide], the concentration for half-maximal inhibition (IC50) is over 2500 nM in assay [1] and 400 to 1000 nM in assay [2] (setting [3]).

Regarding `COC(C)(C)c1ncc(-c2ccc(S(=O)(=O)Nc3cccc4cnn(C)c34)cn2)s1` [Example I-268, 6-(2-(2-methoxypropan-2-yl)thiazol-5-yl)-N-(1-methyl-1H-indazol-7-yl)pyridine-3-sulfonamide], the IC50 in assay [1] is over 2500 nM; in assay [2] (Homo sapiens, Jurkat) it was under 400 nM.

For the molecule `Cn1ncc2cccc(NS(=O)(=O)c3ccc(-c4cnn5c4CCC5)nc3)c21` [Example I-269, 6-(5,6-dihydro-4H-pyrrolo[1,2-b]pyrazol-3-yl)-N-(1-methyl-1H-indazol-7-yl)pyridine-3-sulfonamide], the IC50 is over 2500 nM in assay [1] and under 400 nM in assay [2] (setting [3]).

As for `Cn1ncc2cccc(NS(=O)(=O)c3ccc(-c4cnn5c4COCC5)nc3)c21` [Example I-270, 6-(6,7-dihydro-4H-pyrazolo[5,1-c][1,4]oxazin-3-yl)-N-(1-methyl-1H-indazol-7-yl)pyridine-3-sulfonamide], the IC50 in assay [1] was over 2500 nM; in assay [2] (setting [3]) it was under 400 nM.

In the case of `Cc1ncc(-c2ccc(S(=O)(=O)Nc3cccc4cnn(C)c34)cn2)n1C(F)(F)F` [Example I-271, 6-(2-methyl-1-(trifluoromethyl)-1H-imidazol-5-yl)-N-(1-methyl-1H-indazol-7-yl)pyridine-3-sulfonamide], the IC50 in assay [1] is over 2500 nM; in assay [2] (Homo sapiens, Jurkat), under 400 nM.

On to `Cn1ncc2cccc(NS(=O)(=O)c3ccc(-c4cnn5c4CCCC5)nc3)c21` [Example I-272, N-(1-methyl-1H-indazol-7-yl)-6-(4,5,6,7-tetrahydropyrazolo[1,5-a]pyridin-3-yl)pyridine-3-sulfonamide], for which the IC50 in assay [1] was over 2500 nM; in assay [2] (setting [3]) it was under 400 nM.

As for `COc1ccc2c(F)nn(C)c2c1NS(=O)(=O)c1ccc(-n2cc(C(F)(F)F)cn2)nc1` [Example I-273, N-(3-fluoro-6-methoxy-1-methyl-1H-indazol-7-yl)-6-(4-(trifluoromethyl)-1H-pyrazol-1-yl)pyridine-3-sulfonamide], the IC50 in assay [1] was under 400 nM; in assay [2] (setting [3]), 400 to 1000 nM.

In the case of `Cc1c(-c2ccc(S(=O)(=O)Nc3cccc4cnn(C)c34)cn2)cnn1C1COC1` [Example I-274], the IC50 in assay [1] is over 2500 nM; in assay [2] (setting [3]), under 400 nM.

For `Cc1nn(C2COC2)cc1-c1ccc(S(=O)(=O)Nc2cccc3cnn(C)c23)cn1` [Example I-275], the IC50 is over 2500 nM in assay [1] and 400 to 1000 nM in assay [2] (setting [3]).

In the case of `Cn1ncc2cccc(NS(=O)(=O)c3ccc(-n4cc(C(C)(C)C)cn4)nc3)c21` [Example I-276, 6-(4-tert-butylpyrazol-1-yl)-N-(1-methylindazol-7-yl)pyridine-3-sulfonamide], the figures for the IC50 in assay [1] and in assay [2] (setting [3]) were over 2500 nM and under 400 nM, respectively.

As for `Cn1ncc2cccc(NS(=O)(=O)c3ccc(-n4cc(C(C)(C)O)cn4)nc3)c21` [Example I-277], the IC50 in assay [1] is over 2500 nM; in assay [2] (setting [3]), 400 to 1000 nM.

Consider `COc1ccc2cnn(C)c2c1NS(=O)(=O)c1ccc(-n2cc(C(C)(C)O)cn2)nc1` [Example I-278, 6-(4-(2-hydroxypropan-2-yl)-1H-pyrazol-1-yl)-N-(6-methoxy-1-methyl-1H-indazol-7-yl)pyridine-3-sulfonamide], for which the IC50 in assay [1] and in assay [2] (setting [3]) was over 2500 nM throughout.

Consider `Cn1ncc2cccc(NS(=O)(=O)c3ccc(-n4cc(CO)cn4)nc3)c21` [Example I-279], for which the IC50 was over 2500 nM in assay [1] and under 400 nM in assay [2] (setting [3]).

Regarding `COc1ccc2cnn(C)c2c1NS(=O)(=O)c1ccc(-n2cc(C(C)O)cn2)nc1` (centres unmarked) [Example I-280, 6-(4-(1-Hydroxyethyl)-1H-Pyrazol-1-yl)-N-(6-Methoxy-1-Methyl-1H-Indazol-7-yl)Pyridine-3-Sulfonamide], the IC50 in assay [1] was 400 to 1000 nM; in assay [2] (setting [3]), under 400 nM.

In the case of `COc1ccc2cnn(C)c2c1NS(=O)(=O)c1ccc(-n2cc(C(C)O)cn2)nc1` (centres unmarked) [Example I-281, 6-(4-(1-Hydroxyethyl)-1H-Pyrazol-1-yl)-N-(6-Methoxy-1-Methyl-1H-Indazol-7-yl)Pyridine-3-Sulfonamide], the IC50 in assay [1] is 1000 to 2500 nM; in assay [2] (setting [4]) it was under 400 nM.

Turning to `CC(O)c1cnn(-c2ccc(S(=O)(=O)Nc3cccc4cnn(C)c34)cn2)c1` (centres unmarked) [Example I-282], the IC50 in assay [1] was over 2500 nM; in assay [2] (setting [3]) it was 400 to 1000 nM.

Consider `CC(O)c1cnn(-c2ccc(S(=O)(=O)Nc3cccc4cnn(C)c34)cn2)c1` (centres unmarked) [Example I-283], for which the IC50 in assay [1] is over 2500 nM; in assay [2] (setting [4]), under 400 nM.

For the origin of these results see US20240150365A1 (Hotspot Therapeutics, Inc., priority 2022, published 2024).
